pIC50: −log10 of the molar value.
Columns and labels:
[1] = test system: all four cell lines: Ba/F3, P210 WT, P210 T315I, P210 E255K; assay: Cell proliferation (cell viability) by trypan blue dye exclusion; assay type: cell-based, mouse; details: FIG. 4, 3 experiments, read-out: IC50 for inhibition of cell proliferation
Procedure: Briefly, cell culture methods were as follows. […] Cell proliferation assays were performed as follows.

[2] = test system: phospho-ERK in Ba/F3 cells expressing Bcr-Abl imatinib resistant mutants E255K and T315I; assay: ERK phosphorylation, Western blot with phospho-ERK antibody; assay type: cell-based, mouse; details: FIG. 5
Procedure: (§1) The experiment was conducted as follows. On day 1, 2×10^6 cells were plated in a 6 well plate in medium containing 10% serum, and on day 2 the cells were treated with the relevant compound dissolved in DMSO. The final DMSO concentration was 0.2%. Next, the cells were spun down, and washed once with 2 ml of ice-cold phosphate buffered saline, and then lysed with […] buffer. Next, 50 ul of cell lysates was electrophoresed in 10% Tris-Glycine gels, followed by treatment with a 1° antibody which was a phospho-ERK polyclonal rabbit antibody used at 1:1000 dilution. It was obtained from Cell Signaling. The 1° was followed by a 2° antibody which was goat anti-rabbit horse radish peroxidase antibody, and it was used at a dilution of 1:1000. Lastly, Westerns were developed with an ECL kit obtained from Amersham.

[3] = test system: phospho-ERK in Ba/F3 cells expressing wild type Bcr-Abl; assay: as above; assay type: cell-based, mouse; details: FIG. 5
Procedure: as §1

[4] = test system: chronic myelogenous leukemia; details: CML patients, remissions achieved during blast phase; cited from earlier work

Row | SMILES | pIC50 [1] | effect on phospho-ERK levels [2] | effect on phospho-ERK levels [3] | time to relapse after remission [4]
1 | CNC(=O)c1cc(Oc2ccc(NC(=O)Nc3ccc(Cl)c(C(F)(F)F)c3)cc2)ccn1 [BAY 43-9006] | 5.10 to 5.40 | decrease in phospho-ERK levels | decrease in phospho-ERK levels | 
2 | Cc1ccc(NC(=O)c2ccc(CN3CCN(C)CC3)cc2)cc1Nc1nccc(-c2cccnc2)n1 [imatinib] |  |  |  | 2-6 months

Source: US7307071B2, “RAF-MEK-ERK pathway inhibitors to treat cancer” (Onyx Pharmaceuticals, Inc, priority 2001, dated 2007)
